Literature values as cited in patent publication US11246819B2, “Compositions and methods for inhibiting biofilm deposition and production” (THE TRUSTEES OF THE UNIVERSITY OF PENNSYLVANIA, priority 2016, dated 2022).
Where no end group is shown, it is not given here.

B1: mutanase from Paenibacillus sp. strain RM1: bacterial mutanase, codon optimized for chloroplast expression (SEQ ID NO: 1) (protein)
chain: AGGPNLTPGKPITASGQSQTYSPQNVKDGNQNTYWESTNNAFPQWIQVDLGASTGIDQIVLKLPASWEARTQTLAVQGSLNGSTFTDIVGSANYVFSPSVGNNTVTINFTATSTRYVRLYVTANTGWPAAQLSEFEIYGSGDQTPAPDTYQAESAALSGGAKVNTDHAGYIGTGFVDGYWTQGATTTFSVNAPTAGNYDVTLRYGNATGSNKTVSLYVNGAKIRQTTLPSLPNWDSWSSKTETLNLNAGSNTIAYKYDPGDSGNVNLDQITVEASTSTPTPTPSPTPTPTPTPTPTPTPTPTPTPTPTPTPTPTPTPTPTPPPGGNIAIGKSISASSHTQTYVAENANDNDVNTYWEGGGNPSTLTLDLGANYNITSIVLKLNPSSIWAARTQTIQVLGHDQNTTTFSNLVSAKSYSFDPASGNTVTIPVTATVKRLQLNITSNSGAPAGQVAEFQVFGTPAPNPDLTITGMSWSPSSPVETDAITLNATVKNNGNASAAATTVNFYLNNELAGSAPVAALAAGASATVPLNVGAKTAATYAVGAKVDESNAVIELNESNNSYTNPASLVVAPVSSSDLVGTVSWTPSTPIANNAVSFNVNLKNQGTIASAGGSHGVTVVLKNASGSTVQTFSGSYTGSLAPGASVNITLPGTWTAAAGSYTVTATVAADANELPIKQANNANTASLTVYSARGASMPYSRYDTEDATLGGGATLKSAPTFDQALTASEATGQLYAALPSNGSYLQWTVRQGQGGAGVTMRFTMPDSADGMGLNGSLDVYVNGTKVKTVSLTSYYSWQYFSGDMPGDAPSAGRPLFRFDEVHWKLDTPLKPGDTIRIQKNNGDSLEYGVDFIEIEPVPAAISRPANSVSVTDYGAVPNDGQDDLTAFKAAVNAAVASDKILYIPEGTFHLGNMWEIGSVSNMIDHITITGAGIWYTNIQFTNANPASGGISLRITGKLDFSNVYLNSNLRSRYGQNAVYKGFMDNFGTNSVIRDVWVEHFECGFWVGDYGHTPAIRASGLLIENSRIRNNLADGVNFAQGTSNSTVRNSSLRNNGDDALAVWTSNTNGAPEGVNNTFSYNTIENNWRAGGIAFFGGSGHKADHNYIVDCVGGSGIRMNTVFPGYHFQNNTGIVFSDTTIVNCGTSKDLYNGERGAIDLEASNDAIRNVTFTNIDIINSQRDAIQFGYGGGFTNIVFNNININGTGLDGVTTSRFSGPHLGAAIFTYTGNGSATFNNLRTSNIAYPNLYYIQSGFNLIINNHHHHHH
modifications: codon optimized mutanase

Tests used:
[1] = tested on: human mast cells
[2] = tested on: biofilm; settings: 3 min incubation with biofilms, mutanase removed, then 6 hr incubation

Molecule | potency when linearized | entry into human mast cells and degranulation [1] | biofilm degradation [2]
protegrin: cysteine-rich, 18-residue β-sheet antimicrobial peptide (RGGRLCYCRRRFCVCVGR; not fully specified (bridges); ends and bridges not checked; UniProt P32194 131-148, looked up) | lost potency | enter human mast cells and induce degranulation | 
retrocyclin |  | enter human mast cells and induce degranulation | 
B1 |  |  | effectively degraded
